Test results taken from patent US11214586B2, “Rhodamine triplet state complex and preparation and photodynamic therapy (PDT) study thereof” (SOUTHERN UNIVERSITY OF SCIENCE AND TECHNOLOGY, priority 2018, dated 2022).
Like-named read-outs stand apart in the source and are kept apart here.

Assays:
[1] = Steady-state emission spectra and absolute luminescence quantum yield; format: physicochemical; settings: for λem: Conc. = 1.0 × 10^−6M in MeOH; for Φlum: absolute luminescence quantum yield measured by HAMAMATSU-C11347
Experimental: (§1) The UV-vis absorption spectra were taken on Cary 60 UV-vis spectrophotometer. Steady-state emission spectra at room temperature were recorded on an Edinburgh Instruments FLS980 fluorescence spectrometer. Quartz cuvettes (path length=1 cm) were used in all spectrophotometric and fluorometric measurements. NMR spectra were recorded on a Bruker AVANCE 400 (^1H NMR for 400 MHz and ^13C NMR for 100 MHz) Fourier transform NMR spectrometer with chemical shifts reported relative to tetramethylsilane, (CH3)4Si. High-resolution MS spectra were performed on an Orbitrap Fusion Tribrid mass spectrometer. Elemental analyses of the newly synthesized complexes were preformed on a Elementar Vario EL Cube elemental analyzer at Sun Yat-sen University. The nanosecond time-resolved transient-difference absorption spectra were detected by using Edinburgh LP920 instruments (Edinburgh Instruments, U.K.). All solutions for transient absorption studies were degassed on a high-vacuum line in a two-compartment cell consisting of a 10-ml Pyrex bulb and a 1-cm or 4-mm path length quartz cuvette and sealed from the atmosphere by a Bibby Rotaflo HP6 Teflon stopper. The solutions were rigorously degassed with at least four successive freeze-pump-thaw cycles. Emission lifetime measurements were performed using a conventional laser system. The excitation source used was a 355-nm output (third harmonic) of a Spectra-Physics Quanta-Ray Q-switched GCR-150-10 pulsed Nd-YAG laser. Luminescence decay signals were detected by a Hamamatsu R928 PMT and recorded on a Tektronix Model TDS-620A (500 MHz, 2 GS/s) digital oscilloscope and analyzed using a program for exponential fits. Absolute quantum yields were measured by HAMAMATSU-C11347.

[2] = Nanosecond transient absorption difference spectroscopy; format: physicochemical; settings: for TT (triplet-state lifetimes): measured by transient absorption in CH3CN
From the text: Nanosecond transient absorption (TA) difference spectroscopy was employed to investigate the triplet excited states of M-Rho (FIG. 2c and FIGS. 16-19). Upon pulsed laser excitation at 355 nm, an intense bleaching signal at 575 nm with lifetime in microsecond range is observed, which is ascribed to the depletion of ground state rhodamine absorption. Such a long-lived excited state should be localized on the rhodamine unit, and is assigned as the ^3IL excited state of rhodamine in M-Rho. The absorption signal at 610-800 nm is due to the rhodamine ^3IL excited state absorption. In contrast, no signal from this triplet excited state is detected in bpy-Rho because of the lack of efficient ISC. On the other hand, only the transient absorption signals originating from the corresponding ^3MLCT excited states are observed in the rhodamine-free analogues (FIGS. 20-21).
as §1

[3] = Octanol-water partition coefficient
From the text: (§3) Octanol-water partition coefficients (log Po/w)^[27] of bpy-Rho and M-Rho have been measured in order to study their lipophilic/hydrophilic characters. The higher is the log Po/w value associated with the dye, the higher is its lipophilic character.

MCF-7 cells [4] = assay: Mitochondrial membrane potential, flow-cytometry-based JC-1 assay; format: cell-based, human; settings: 5 uM, 11 W lamp 30 min
Experimental: Mitochondrial depolarization was assessed by flow cytometry after incubation with JC-1 Molecular Probes (Thermo Fisher Scientific, USA). Briefly, The MCF-7 cells were seeded in six-well plate, incubated for 24 h in 5% CO2 at 37° C. Next, added to compounds (bpy-Rho and M-Rho) in medium make the final concentrations of 5 uM compounds. After irradiation treatment (11 W lamp 30 min). The cells were resuspended in warm PBS, and incubated with JC-1 (4 μg/ml) for 30 min at 37° C. and 5% CO2. Thereafter the cells were centrifuged, resuspended in 600 μL of PBS, and analyzed immediately on a flow cytometer (Becton Dickinson, San Jose, Calif., USA). Untreated cells were used as negative controls.

[5] = UV/Vis absorption spectra; format: physicochemical; settings: for λabs: absorption maximum, in CH3CN; for ε × 10^4: molar extinction coefficient at the absorption maxima, values × 10^4
Experimental: as §1

[6] = Singlet oxygen quantum yield; format: physicochemical; settings: for ΦΔ (singlet oxygen quantum yield): relative to rose bengal (ΦΔ = 0.76)
From the text: (§2) The long-lived triplet excited state of rhodamine is anticipated to interact with molecular oxygen (^3O2) to form singlet oxygen (^1O2), which is useful for PDT applications. The ability of M-Rho to produce ^1O2 has been evaluated spectroscopically by the observation of ^1O2 emission at about 1270 nm (inset of FIG. 2b). Remarkable ^1O2 emission is observed in Ir-Rho, Re-Rho and Pt-Rho but not for Rh-Rho and bpy-Rho. By monitoring the diminution of the characteristic absorption of the ^1O2 scavenger 1,3-diphenylisobenzofuran (DPBF) at 410 nm, ^1O2 generation is also confirmed and the corresponding quantum yields (ϕΔ) for the complexes are determined (Table 1). […] The rate and quantum yield of ^1O2 generation are found to vary with different metal systems.
Singlet oxygen quantum yield was determined by comparing the ^1O2 emission intensity of Rose Bengal and M-Rho.

[7] = Singlet oxygen emission at about 1270 nm; format: physicochemical; settings: in CH3CN
Experimental: Singlet oxygen emission was detected by using FLS-980 spectrofluorometer. All of the compounds were dissolved in CH3CN. The absorbance at 532 nm was adjusted to be around 1.7 for all the compounds. Upon measurements, an 850 nm long-pass filter was inserted in between the sample and the detector to avoid many high-order diffraction from the visible emission.

MCF-7 cells [8] = assay: Mitochondria-localized ROS, MitoSOX Red; format: cell-based, human; settings: 10 μM, 11 W lamp irradiation for 10 min
Experimental: (a) Confocal fluorescence microscopic images of MCF-7 cells treated with MitoSOX (1.0 μM) according to the treatment variables, including with coincubation with bpy-Rho and M-Rho (10 μM), 11 W lamp irradiation for 10 min. (b) Flow cytometry analysis of MCF-7 cells (n=10000 cells) after treatment with MitoSox and different Rhodamine-metal Complexes mean fluorescence intensity per cell.
On the basis of the results of intracellular ROS production and colocalization study, it is reasonable to anticipate that the ROS is essentially generated within the mitochondria. MitoSOX Red reagent, a mitochondrial ROS indicator, is also used to probe specifically the generation of mitochondria-localized ROS. Intense red fluorescence from the oxidation of MitoSOX is observed in both confocal fluorescence microscopy images (FIG. 26a) and flow cytometry analysis (FIG. 26b) of MCG-7 cells incubated with MitoSOX and M-Rho.

MCF-7 cells [9] = assay: Intracellular ROS, DCFH-DA assay; format: cell-based, human; settings: 5 μM, 11-W lamp for 30 min
Experimental: The MCF-7 cells were seeded in eight-well chambered coverglasses (lab-Tek, Nunc, USA) and six-well plate, incubated for 24 h in 5% CO2 at 37° C. Next, added to compounds (bpy-Rho and M-Rho) in medium make the final concentrations of 5 μM compounds. After irradiation treatment (11 W lamp 30 min), cells were promptly washed with PBS and incubated with 4 μg/ml 2′7′-dichloro-fluoreseindiacetate (DCFH-DA) for 30 min, and intracellular ROS generation was evaluated by flow cytometry and confocal microscopy.

MCF-7 cells [10] = assay: Subcellular localization with MitoTracker Green; format: cell-based, human; settings: 5 μM, co-stained with MitoTracker Green
Experimental: MCF-7 cells (5000 cells) were cultured in eight-well chambered coverglasses (lab-Tek, Nunc, USA) for 24 h. Later, added to the cells to give final complexes concentrations (5 μM). After incubation for 30 min, The cells were treated with Mito-Tracker for 10 min to stain specifically the mitochondria (1:5000 dilution in PBS). After washing three times with PBS, followed by confocal microscopy imaging.

[11] = DPBF 1O2 scavenger absorbance under 11-W lamp irradiation; format: physicochemical; settings: irradiation with a 11-W lamp; 50 μM DPBF, 5 μM compound
Experimental: Rose Bengal was measured in MeOH.
as §2

[12] = octanol-water, literature value; cited from earlier work

From the text for physchem: as §3

| Compound | λem [1] | Φlum [1] | TT (triplet-state lifetimes) [2] | log Po/w [3] | ratio of JC-1 aggregates/JC-1 monomers (MCF-7 cells [4]) | λabs [5] | ε × 10^4 [5] | ΦΔ (singlet oxygen quantum yield) [6] | 1O2 emission at about 1270 nm [7] | logP (physchem) | emission ([1]; in MeCN) | MitoSOX red fluorescence (mitochondria-localized ROS) (MCF-7 cells [8]) | signal from rhodamine triplet excited state ([2]; excitation at 355 nm) | intracellular ROS generation (MCF-7 cells [9]) | mitochondrial localization (MCF-7 cells [10]) | DPBF absorption at 410 nm [11] | rate and quantum yield of 1O2 generation, ranking ([6]; among M-Rho) | log Po/w [12] |
| --- | --- | --- | --- | --- | --- | --- | --- | --- | --- | --- | --- | --- | --- | --- | --- | --- | --- | --- |
| CCN(CC)c1ccc2c(-c3ccnc(-c4cc(C)ccn4)c3)c3ccc(=[N+](CC)CC)cc-3oc2c1.F[P-](F)(F)(F)(F)F.[C](#Cc1ccccc1)[Pt][C]#Cc1ccccc1 [Pt-Rho] | 631 nm | 0.062 | 8.49 μs | 1.26 | 8.16 | 574 nm | 7.96 M^−1 cm^−1 | 0.57 | Remarkable |  |  |  |  |  |  |  |  |  |
| CCN(CC)c1ccc2c(-c3ccnc(-c4cc(C)ccn4)c3)c3ccc(=[N+](CC)CC)cc-3oc2c1 [bpy-Rho, N-(6-(diethylamino)-9-(4′-methyl-[2,2′-bipyridin]-4-yl)-3H-xanthen-3-ylidene)-N-ethylethanaminium] | 598 nm | 0.29 |  |  | 14.23 | 564 nm | 9.86 M^−1 cm^−1 | 0.08 | not | 0.49 | 598 nm | very weak red fluorescence | no signal | negligible or a little amount of ROS | relatively less mitochondria-localized | negligible decrease |  |  |
| CCN(CC)c1ccc2c(-c3ccnc(-c4cc(C)ccn4)c3)c3ccc(=[N+](CC)CC)cc-3oc2c1.F[P-](F)(F)(F)(F)F.F[P-](F)(F)(F)(F)F.c1ccc(-c2cccc[c]2[Rh+][c]2ccccc2-c2ccccn2)nc1 [Rh-Rho] | 629 nm | 0.23 | 14.1 μs | −1.05 | 11.28 | 574 nm | 8.24 M^−1 cm^−1 | 0.37 | not |  |  |  |  |  |  |  | worst photosensitizer |  |
| COC(=O)c1ccccc1-c1c2ccc(=N)cc-2oc2cc(N)ccc12.Cl [rhodamine 123] |  |  |  |  |  |  |  |  |  |  |  |  |  |  |  |  |  | −0.62 |
